PubChem BioAssay (NCI)
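Interpolation was linear, between the two tested concentrations surrounding the appropriate level; five concentrations were tested over 48 hours in 96-well plates. The concentration for 50% growth inhibition is given as GI50. TGI marks complete inhibition of growth.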

Columns and labels:
Test in all cases: NCI anticancer screen, dose series, 48 h
[1] = tested on: HCC-2998 colon
[2] = tested on: SK-OV-3 ovarian
[3] = tested on: SW-620 colon
[4] = tested on: MDA-MB-231 breast
[5] = tested on: UACC-62 melanoma
[6] = tested on: LOX IMVI melanoma
[7] = tested on: MCF7 breast

SMILES | GI50 [1] [µM] | TGI [1] [µM] | GI50 [2] [µM] | TGI [2] [µM] | GI50 [3] [µM] | TGI [3] [µM] | GI50 [4] [µM] | TGI [4] [µM] | GI50 [5] [µM] | TGI [5] [µM] | GI50 [6] [µM] | TGI [6] [µM] | GI50 [7] [µM] | TGI [7] [µM]
NCCNc1nc2ccc(F)cc2c2c(=O)c3cc(F)ccc3sc12 | 1.77 | 3.44 | 5.44 | 20.9 | 1.56 | 3.09 | 1.51 | 3.08 | 1.66 | 3.06 | 1.72 | 3.13 |  | 
CCSc1nc(N)c(C#N)c(-c2ccc(OC)c(OC)c2)c1C#N | 37.9 | > 50 | 15.4 | > 50 | 25.4 | > 50 | 11.7 | 48.9 | 8.65 | 45.2 | 14.9 | 48.2 | 10.6 | > 50
O=C1Nc2cc(-c3ccc(O)cc3)ccc2/C1=C/c1ccc[nH]1 | 0.511 | > 100 |  |  | 0.0746 | > 100 | 0.154 | 6.66 | 0.049 | 10.9 | 0.0481 | 9.77 |  | 
O=C1c2ccccc2-c2c1c1ccc([N+](=O)[O-])cc1c(=O)n2CCN1CCOCC1 | > 100 | > 100 | > 100 | > 100 | 40.5 | > 100 | > 100 | > 100 | 82.7 | > 100 | 37.8 | > 100 | 43 | > 100
Fc1cccc(-c2nc(-c3c[nH]c4ncccc34)cs2)c1 | > 100 | > 100 | 11.9 | 94.3 | > 100 | > 100 | 38.2 | > 100 | > 100 | > 100 | > 100 | > 100 | 5.27 | > 100
Cc1cc(O)cc(-c2nn(C)cc2-c2cc(N3CCOCC3)nc(-c3cccnc3)n2)c1 | 13.9 | 49.5 | 6.83 | 43.7 | 8.14 | 48.1 | 5.82 | 38 | 1.9 | 18.7 | 4.16 | 27.3 | 1.13 | 18.1
COc1ccc(OC)c(-c2nc3sc(C)cn3c2/C=C2\C(=O)N(C)c3ccccc32)c1 |  |  | 28.4 | 71.4 | 35.6 | > 100 | 15.3 | 66.3 | 13.4 | 31.1 | 17.3 | 37.9 | 12.7 | 41.8
CCOC(=O)CC1C(CNC(=O)NC)OC(n2cnc3c(NC(=O)Nc4ccccc4)ncnc32)C1O[Si](C)(C)C(C)(C)C (stereo unspecified) | > 100 | > 100 | 21 | > 100 | 4.8 | 28.4 | 3.96 | 41.3 | > 100 | > 100 | 5.46 | > 100 | 3.42 | 45.1
COC(=O)C[C@@H]1CC=CC(=O)/C1=C(O)/C=C/c1ccccc1 | 1.72 | 3.25 | 1.7 | 3.88 | 0.338 | 1.33 | 1.46 | 4.22 | 1.42 | 3.98 | 0.172 | 0.332 | 0.374 | 3.04
COc1ncc(-c2ccc3ncnc(Nc4cccc(Cl)c4)c3c2)cc1NS(C)(=O)=O | 1.82 | 14.8 | 0.813 | 4.16 | 3.22 | 17.7 | 1.99 | 19.6 | 1.79 | 12.2 | 1.68 | 11.1 | 0.404 | 11.1
C#CCn1c2c(c3ccccc3c1=O)C(=O)c1ccccc1-2 |  |  |  | 73.1 |  | > 100 |  | 39.1 |  | 57.1 |  | > 100 |  | 27.7
COc1ccc(-c2cncn2-c2ccc(-c3nc4cc(OC)c(OC)c(OC)c4s3)cc2)cc1N |  |  | > 100 | > 100 | 6.21 | > 100 | > 100 | > 100 | 9.04 | > 100 | 4.75 | > 100 | 4.07 | > 100
CCCCCC/C=C\CCCCCCCCCc1cccc(OC)c1O |  |  |  | > 100 |  | > 100 |  | > 100 |  | > 100 |  | > 100 |  | > 100
O=C(Oc1c(Cl)c(Cl)c(Cl)c(Cl)c1Cl)C1CCCN1C(=O)OCc1ccccc1 (stereo unspecified) | 4.36 | 14.9 | 3.15 | 9.07 | 3.44 | 14.4 | 2.42 | 6.6 | 3.24 | 12.6 | 2.85 | 8.6 | 3.16 | 11.9
Nc1ncc(-c2ccc3ncnc(N4CCc5cc(F)c(Cl)cc54)c3c2)cc1C(F)(F)F | 2.13 | > 100 | 2.15 | > 100 | 1.95 | > 100 |  |  |  |  |  |  |  | 
Clc1ccc2c(NCCNc3nc(N4CCCCC4)nc4ccccc34)ccnc2c1 | 2.22 | 6.26 | 2.58 | 7.64 | 1.34 | 3.33 |  |  | 1.95 | 3.7 | 1.58 | 3.36 | 0.748 | 12.6
CN1CCN(c2ccc(NC(=O)c3cncnc3Nc3ccc4c(ccn4Cc4cccc(F)c4)c3)cc2)CC1 | 3.03 | 7.4 | 5.09 | 9.78 | 0.828 | 2.35 | 1.34 | 5.03 | 4.06 | 8.25 | 0.591 | 1.16 | 1.15 | 5.02
COC(=O)C1OC(SCCN)C(O)C(O)C1O (stereo unspecified) |  |  |  | > 100 |  | > 100 |  | > 100 |  | > 100 |  | > 100 |  | > 100
CCN1C(=O)N[C@H]2[C@@H]3NC(=O)c4ccc(Cl)n4[C@@H]3C[C@]21O | 0.607 | 4.79 | 2.07 | 7.56 | 0.511 | > 100 | 0.822 | 7.25 |  |  | 0.279 | 1.3 | 0.242 | 1.5
Cn1c(=O)c2[nH]c(CCS)nc2n(C)c1=O |  |  |  | > 100 |  | > 100 |  | > 100 |  | > 100 |  | > 100 |  | > 100
